In publication PMC11784013, “Potassium molybdate blocks APN-dependent coronavirus entry by degrading receptor via PIK3C3-mediated autophagy” (Journal of Virology, 2024):

Tested on: PRCV
Test: PRCV infection of ST cells (RT-qPCR, TCID50, western blot, IFA)
Assay type: cell-based, porcine respiratory coronavirus
Details: PRCV 0.1 MOI; for PRCV N level, western blot, relative to WT without PM (=1): PM 10 mM, 16 h
Protocol: Fig 1 PM inhibits TGEV and PRCV infection in ST cells. (A) A cytotoxicity assay of PM in ST cells. ST cells cultured in a 96-well plate were incubated with different concentrations of PM for 24 h, which was tested by Cell Counting Kit 8. (B) Time course for PM inhibiting TGEV or PRCV or PEDV infection assay. (C–F) The ST cells, pretreated with PM at the indicated concentrations for 1 h were infected with TGEV Miller (0.1 MOI) or PRCV (0.1 MOI) for 1 h and were again treated with PM at 37°C for 17 h. The cell samples were collected and examined by real-time quantitative PCR (RT-qPCR), TCID50, western blot (C and D), and immunofluorescence assay (IFA) (E and F), scale bar: 50 µm. (G) Vero-E6 cells were treated with indicated PM and infected with PEDV LJX 01/2014 according to the time course of Fig. 1B, which was detected by TCID50 and western blot. Results are presented as mean ± SD of data from three independent experiments. ns, no significant; **, P ≤ 0.01; ***, P ≤ 0.001.
Fig 3 PM inhibits TGEV and PRCV infection by potassium ion and molybdate synergy. (A and B) The ST cells, pretreated with potassium chloride (KCl) or sodium molybdate (Na2MoO4) at the indicated concentrations for 1 h were infected with TGEV Miller (0.1 MOI) for 1 h and were again treated with KCl or Na2MoO4 at 37°C for 17 h. The cell samples were measured by RT-qPCR. (C and D) ST cells were treated with PM (K2MoO4, 10 mM), KCl (20 mM), Na2MoO4 (10 mM), sodium chloride (NaCl, 10 mM), K2MoO4 (10 mM), and NaCl (20 mM) as well as Na2MoO4 (10 mM) and KCl (20 mM) for 1 h and then infected with TGEV Miller (0.1 MOI) or PRCV (0.1 MOI) for 17 h, which was determined by RT-qPCR and TCID50. Results are presented as mean ± SD of data from three independent experiments. ***, P ≤ 0.001; ns, no significance.
Total RNA was extracted using RNAiso reagent (TaKaRa, Japan, 9109) and reverse transcribed into cDNA using HiScript Q RT SuperMix for qPCR (Vazyme, China, R223-01), both of which followed the manufacturer’s recommendations. The TGEV and PRCV virus copy numbers were detected by the TaqMan probe-based RT-qPCR method developed previously in our laboratory ([59]). Relative qPCR was also performed using ChamQ SYBR qPCR master mix (Vazyme, China, Q311-02), and the results were calculated via the 2^-ΔΔCT method.
Fig. S8. PM inhibits PRCV infection by degrading APN via PIK3C3-mediated autophagy. (A-C) WT ST cells and PIK3C3 KO ST cells were treated with PM (10 mM) and infected with PRCV (0.1 MOI) for 16 h. Then the APN, PIK3C3, ATG14, BECN1, P62, PRCV N and LC3 were detected by western blot (A), and viral titers and PRCV N mRNA level were determined by TCID50 (B) and RT-qPCR (C) . (D-F) WT ST cells and PIK3C3 KO ST cells transfected with pCMV-Myc and pCMV-Myc-PIK3C3 respectively for 24 h were treated with PM (10 mM) and infected with PRCV (0.1 MOI) for 16 h. The APN, PIK3C3, P62, PRCV N and LC3 were determined by western blot (D). TCID50 (E) and RT-qPCR (F) were performed to detect viral titers and PRCV N m RNA level. All western blot results were calculated by Image J. Results are presented as mean ± SD of data from three independent experiments (also on this page, place not known: 6 8 10 12 Viral load(log copies/ul) *** 2 4 6 8 log10 TCID50/ml *** 6 8 10 12 + Viral load(log copies/ul) PIK3C3-Myc + - + + + *** *** 2 4 6 8 log10 TCID50/ml *** + + + + PIK3C3-Myc - - - + - + + + *** WT KO PM (C). WT KO PM PRCV PM - + + PRCV + + + WT PIK3C3 KO PIK3C3 PRCV PIK3C3-Myc - - - + PM - + + + PRCV + + + + WT PIK3C3 KO 0 0) […]

Q: Which results are given for `[K+].[K+].[O]=[Mo](=[O])([O-])[O-]` [PM, potassium molybdate]?
A: PRCV N level, western blot, relative to WT without PM (=1) (Fig. S8A, PIK3C3 KO ST cells): 0.81; PRCV N level, western blot, relative to WT without PM (=1) (Fig. S8A, WT ST cells): 0; PRCV N level, western blot, relative to WT without PM (=1) (Fig. S8D, PIK3C3 KO ST cells with PIK3C3-Myc): 0; PRCV N level, western blot, relative to WT without PM (=1) (Fig. S8D, PIK3C3 KO ST cells without PIK3C3-Myc): 0.78; PRCV N level, western blot, relative to WT without PM (=1) (Fig. S8D, WT ST cells with pCMV-Myc): 0; PRCV infection (ST cells, PM 1 h pretreatment and 17 h after infection, RT-qPCR, TCID50, western blot, IFA): effectively restricted
